Earlier results as cited in EP3290412A1, “HIV-1 NUCLEOCAPSID INHIBITORS” (Università degli Studi di Siena, priority 2016, dated 2018).
Marks after values point to notes of the source that are not given here.

Columns and labels:
[1] = tested on: NIH Catalogue Number: 11845; conditions: cited from earlier work
[2] = tested on: NIH Catalogue Number: 11842; conditions: cited from earlier work

Cc1nnc(C(=O)NC(C)(C)c2nc(C(=O)NCc3ccc(F)cc3)c(O)c(=O)n2C)o1 [Raltegravir™, Raltegravir, reference compound]
Level of resistance ([1]; INI resistant strain 11845): High resistance
Fold change ([1]; strain 11845, resistant virus IC50 to wild-type reference virus IC50 ratio, cut-off in brackets): >200 (1.5^b)
Level of resistance ([2]; INI resistant strain 11842): High resistance
Fold change ([2]; strain 11842, resistant virus IC50 to wild-type reference virus IC50 ratio, cut-off in brackets): 96 (1.5^b)
